Earlier results in patent US10098922B1, “Increasing telomere length in a cell” (priority 2017, dated 2018).

What was measured:
[1] = system: doxorubicin-induced leukopenia; details: rats, oral by gavage
[2] = system: rats; details: AC-11 80 mg/kg plus doxorubicin vs doxorubicin only

Row | Compound | Reversal of doxorubicin-induced leukopenia [1] | Mean heart weight coefficient [2]
1 | O=C(O)[C@]1(O)C[C@@H](O)[C@@H](O)[C@H](O)C1 [QA, quinic acid] | about as effective as C-MED-100® | 
2 | N.O=C(O)C1(O)CC(O)C(O)C(O)C1 (stereo not drawn) [QAA] | about as effective as C-MED-100® | 
3 | COc1cccc2c1C(=O)c1c(O)c3c(c(O)c1C2=O)C[C@@](O)(C(=O)CO)C[C@@H]3O[C@H]1C[C@H](N)[C@H](O)[C@H](C)O1 [doxorubicin] |  | 0.369%±0.022
